From ChEMBL document CHEMBL1123128, “(+/-)-2-Amino-3,4-dihydro-7-[2,3-dihydroxy-4-(hydroxymethyl)-1- cyclopentyl]-7H-pyrrolo[2,3-d]pyrimidin-4-ones: new carbocyclic analogues of 7-deazaguanosine with antiviral activity” (1985)
In brackets after ≈: the same amount, converted by molar mass.

Test system: Human alphaherpesvirus 1
Test: The minimal inhibitory concentration required to inhibit HSV-1 virus in MRC5 cells
Format: functional

Nc1nc(O)c2ccn([C@@H]3C[C@H](CO)[C@@H](O)[C@@H]3O)c2n1
MIC: 25 µg/mL (≈ 89.2 µM)

Nc1nc(O)c2ccn([C@@H]3C[C@H](CO)[C@H](O)[C@@H]3O)c2n1
MIC: 100 µg/mL (≈ 357 µM)
